Broadly, the IC50 is the concentration that inhibits the measured activity by half.

For assay [1], the system named is lipid peroxide formation in rat liver homogenate. The assay is described as follows: Antioxiding effect: inhibitory activity against formation of peroxidized fat (lipid peroxide by TBA method). Type of assay: biochemical, Male Sprague Dawley rat. The following applies: 200 μM FeCl2, 10% rat liver homogenate, 37° C., 1 hr. On the procedure:
The antioxiding effect of the compounds of the present invention has confirmed by the screening system which examines inhibitory activity against formation of peroxidized fat mentioned below. Male Sprague Dawley rat was fasted for 12 hrs (overnight) before experiments, and was anesthetized with ether. Rat liver was perfused with ice-cold 0.9% NaCl via the portal vein, and promptly excised. 10% Liver homogenates were prepared in ice-cold 1.15% KCl. The reaction was started by adding 200 μM FeCl2 to the liver homogenate ([…]), and incubated at 37° C. for 1 hr. Lipid peroxide was measured by the TBA method according to the method of Ohkawa (See Analytical Biochemistry,95, 351 (1979)). The compounds of the present invention were added before incubation. And the efficacy thereof was examined and calculated IC50 values thereof.

Assay [2] deals with Lysozyme (dimer formation with fructose). The experiment in a line: Inhibitory activity on Maillard reaction: formation of lysozyme dimer (lysozyme + fructose, SDS-PAGE, densitometer). The settings on record: lysozyme 10 mg/ml, fructose 100 mM, 0.2M sodium phosphate buffer pH 7.4, 37° C., 3 days. The assay is classed as biochemical. On the procedure: The inhibitory activity on Maillard reaction of the compounds of the present invention has confirmed by the screening system mentioned below. Lysozyme (10 mg/ml) and fructose (100 mM) were dissolved in 0.2M sodium phosphatic buffer solution (PH 7.4). The solution was incubated at a temperature of 37° C. for 3 days. A given volume of the reaction solution was separated using SDS-PAGE by the electrophoresis. After the electrophoresis, the SDS-PAGE was dyed by 0.2% Coomassie Brilliant Blue R-250 and then the dimer was determined by densitometer. The compounds of the present invention were added before incubation and the inhibitory activity of them against the formation of the dimer was examined in various concentrations and IC50 values were calculated.

In assay [3] the test system is Maillard reaction. The following applies: Brownlee et al., Science 232, 1629 (1986); cited from earlier work.
Assay [4] deals with advanced glycosylation end products in arterial wall connective tissue protein. The following applies: administered to diabetic rats; Brownlee et al., Science 232, 1629 (1986); cited from earlier work.

Counter-ions that a name gives are not always drawn.

Turning to `Cc1c(C)c2c(c(C)c1O)CCC(C)(CCOC(=O)c1ccc(N(C)C(=N)N)cc1)O2` (centres unmarked) [1 (m), 2-(6-hydroxy-2,5,7,8-tetramethyl-3,4-dihydro-2H-benzo[1,2-b]pyran--2-yl)ethyl 4-(1-methylquanidino)-benzoate hydrochloride], the IC50 in assay [1] stood at 600 nM; in assay [2], 440000 nM.
For `Cc1c2c(c3ccccc3c1O)OC(C)(CCOC(=O)c1ccc(NC(=N)N)cc1)CC2` (centres unmarked) [1 (e), 2-(2,5-dimethyl-6-hydroxy-3,4-dihydro-2H-naphtho[1,2-b]pyran-2-yl)ethyl 4-quanidinobenzoatehydrochloride], the figures for the IC50 in assay [1] and in assay [2] were 160 nM and 50000 nM, respectively.
The matching figures for `Cc1c(C)c2c(c(C)c1O)CCC(C)(CCNC(=O)c1ccc(NC(=N)N)cc1)O2` (centres unmarked) [Example 2, N-[2-(6-hydroxy-2,5,7,8-tetramethyl-3,4-dihydro-2H-benzo[1,2-b]pyran-2-yl)ethyl]-4-guanidinobenzamide hydrochloride]: 660 nM and 450000 nM.
On to `N=C(N)NN` [aminoguanidine], for which the “inhibition of Maillard reaction in vitro” value in assay [3] is “inhibits Maillard reaction in vitro”. In addition, the “inhibition of diabetes-induced accumulation of advanced glycosylation end products in arterial wall connective tissue protein” value in assay [4] was “inhibits diabetes-induced accumulation of advanced glycosylation end products in arterial wall connective tissue protein”.
On to `Cc1c(C)c2c(c(C)c1O)CCC(C)(CCOC(=O)/C=C/c1ccc(NC(=N)N)cc1)O2` (centres unmarked) [1 (h), 2-(6-hydroxy-2,5,7,8-tetramethyl-3,4-dihydro-2H-benzo[1,2-b]pyran-2-yl)ethyl4-quanidinocinnamate hydrochloride], for which the IC50 stood at 900 nM in assay [1] and 53000 nM in assay [2].
For the compound `Cc1c(C)c2c(c(C)c1O)CCC(C)(CCNC(=N)NN)O2` (centres unmarked) [Example 3, 1-amino-3-[2-(6-hydroxy-2,5,7,8-tetramethyl-3,4-dihydro-2H-benzo[1,2-b]pyran-2-yl)ethyl]guanidine hydroiodide], the IC50 in assay [1] is 540 nM; in assay [2] it was 360000 nM.
In the case of `Cc1c2c(c3ccccc3c1O)OC(C)(CCOC(=O)c1ccc(CNC(=N)N)cc1)CC2` (centres unmarked) [1 (j), 2-(2,5-dimethyl-6-hydroxy-3,4-dihydro-2H-naphtho[1,2-b]pyran-2-yl)ethyl 4-quanidinomethylbenzoatehydrochloride], the IC50 in assay [1] stood at 460 nM; in assay [2], 60000 nM.
The matching figures for `Cc1c(C)c2c(c(C)c1O)CCC(C)(CCOC(=O)c1ccc(NC(=N)N)cc1)O2` (centres unmarked) [1 (a), 2-(6-hydroxy-2,5,7,8-tetramethyl-3,4-dihydro-2H-benzo[1,2-b]pyran-2-yl)ethyl4-quanidinobenzoate hydrochloride]: 540 nM and 200000 nM.
In turn, `Cc1c(C)c2c(c(C)c1O)CCC(C)(CCNC(=O)c1ccc(CNC(=N)N)cc1)O2` (centres unmarked) [2 (b), N-[2-(6-hydroxy-2,4,7,8-tetramethyl-3,4-dihydro-2H-benzo[1,2-b]pyran-2-yl)-ethyl]-4-quanidinomethyl-benzamide hydrochloride] displayed an IC50 in assay [1] of 470 nM.

The values are drawn from patent US5508450A, “Benzopyran derivatives” (Ono Pharmaceutical Co., Ltd., priority 1989, dated 1996).
